This passage reports EC50 results from patent US20240246937A1 (MERCK SHARP & DOHME LLC, priority 2021, published 2024).

recombinant IL4I1, sequence (Q96RQ9 22-567): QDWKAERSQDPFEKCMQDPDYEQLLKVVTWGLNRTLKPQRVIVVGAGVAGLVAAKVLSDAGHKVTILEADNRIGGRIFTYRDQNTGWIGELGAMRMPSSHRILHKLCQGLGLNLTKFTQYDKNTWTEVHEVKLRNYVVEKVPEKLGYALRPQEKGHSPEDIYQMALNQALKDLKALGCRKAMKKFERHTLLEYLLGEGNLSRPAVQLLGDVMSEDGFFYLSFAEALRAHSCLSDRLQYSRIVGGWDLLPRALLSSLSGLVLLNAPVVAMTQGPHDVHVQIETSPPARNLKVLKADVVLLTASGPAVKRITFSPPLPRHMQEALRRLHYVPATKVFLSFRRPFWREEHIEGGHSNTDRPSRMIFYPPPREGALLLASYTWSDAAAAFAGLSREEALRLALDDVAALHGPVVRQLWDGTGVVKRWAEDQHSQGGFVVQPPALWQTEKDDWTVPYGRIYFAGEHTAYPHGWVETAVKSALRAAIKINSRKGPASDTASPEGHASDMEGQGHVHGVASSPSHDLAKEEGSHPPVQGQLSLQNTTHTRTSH

The target in this test is recombinant IL4I1 (Homo sapiens (Human), UniProt Q96RQ9). The experiment in a line: IL4I1 Enzymatic Assay (Amplex Red/HRP coupled fluorescence detection of H2O2). Type of test: biochemical. The following applies: 240 min; recombinant IL4I1, four-hour pre-incubation with compound. Summed up:
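Ten-point, 1:3 compound titrations were fitted by four-parameter sigmoidal regression to give EC50. Resorufin fluorescence (544/590 nm) from Amplex Red/HRP-coupled H2O2 detection was read 120 min after adding 1 mM each aromatic amino acid to 1 nM IL4I1, following a 4 h compound pre-incubation in pH 7.0 Hepes buffer.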
`O=C1C(=O)N([C@H]2C[C@@H](c3ccccc3)C2)CCN1Cc1ccc(-n2nccn2)nn1` [Example 326, 1-((6-(2H-1,2,3-triazol-2-yl)pyridazin-3-yl)methyl)-4-((cis)-3-phenylcyclobutyl)piperazine-2,3-dione]: the EC50 (usually the midpoint of the concentration-response curve) was 20 nM.

Turning to `O=C1C(=O)N([C@H]2C[C@@H](c3ccccc3)C2)CCN1Cc1ccc(-n2ccnn2)nn1` [Example 327, 1-((6-(1H-1,2,3-triazol-1-yl)pyridazin-3-yl)methyl)-4-((cis)-3-phenylcyclobutyl)piperazine-2,3-dione], the EC50 was determined as 16 nM.

Consider `O=c1c(=O)n(C2CCCC2)ccn1Cc1ccc(-n2ccnn2)nn1` [Example 328, 1-((6-(1H-1,2,3-triazol-1-yl)pyridazin-3-yl)methyl)-4-cyclopentyl-1,4-dihydropyrazine-2,3-dione], for which the EC50 amounted to 7 nM.

Take `O=c1c(=O)n(C2CCC2)ccn1Cc1ccc(-n2cccn2)nn1` [Example 329, 1-((6-(1H-pyrazol-1-yl)pyridazin-3-yl)methyl)-4-cyclobutyl-1,4-dihydropyrazine-2,3-dione]: the EC50 came out at 15 nM.

As for `O=c1c(=O)n(C2CCC2)ccn1Cc1ccc(-n2ccnc2)nn1` [Example 330, 1-((6-(1H-imidazol-1-yl)pyridazin-3-yl)methyl)-4-cyclobutyl-1,4-dihydropyrazine-2,3-dione], the EC50 came to 16 nM.

Regarding `O=c1c(=O)n([C@H]2C[C@H]3C[C@H]3C2)ccn1Cc1ccc(-n2ccnn2)nn1` [Example 331, 1-((6-(1H-1,2,3-triazol-1-yl)pyridazin-3-yl)methyl)-4-((cis)-bicyclo[3.1.0]hexan-3-yl)-1,4-dihydropyrazine-2,3-dione], the EC50 was determined as 9 nM.

As for `CC1(n2ccn(Cc3ccc(-n4nccn4)nn3)c(=O)c2=O)CC1` [Example 332, 1-((6-(2H-1,2,3-triazol-2-yl)pyridazin-3-yl)methyl)-4-(1-methylcyclopropyl)-1,4-dihydropyrazine-2,3-dione], the EC50 came out at 76 nM.

Turning to `N#CC1(n2ccn(Cc3ccc(-n4nccn4)nn3)c(=O)c2=O)CC1` [Example 333, 1-(4-((6-(2H-1,2,3-triazol-2-yl)pyridazin-3-yl)methyl)-2,3-dioxo-3,4-dihydropyrazin-1(2H)-yl)cyclopropane-1-carbonitrile], the EC50 worked out at 94 nM.

On to `CC1(n2ccn(Cc3ccc(-n4ccnn4)nn3)c(=O)c2=O)CC1` [Example 334, 1-((6-(1H-1,2,3-triazol-1-yl)pyridazin-3-yl)methyl)-4-(1-methylcyclopropyl)-1,4-dihydropyrazine-2,3-dione], for which the concentration for a half-maximal effect (EC50) came to 29 nM.

In the case of `N#CC1(n2ccn(Cc3ccc(-n4ccnn4)nn3)c(=O)c2=O)CC1` [Example 335, 1-(4-((6-(1H-1,2,3-triazol-1-yl)pyridazin-3-yl)methyl)-2,3-dioxo-3,4-dihydropyrazin-1(2H)-yl)cyclopropane-1-carbonitrile], the EC50 was found to be 90 nM.

Consider `O=C1C(=O)N(C2CCCC2)CCN1Cc1ccc(-n2nccn2)nc1` [Example 336, 1-((6-(2H-1,2,3-triazol-2-yl)pyridin-3-yl)methyl)-4-cyclopentylpiperazine-2,3-dione], for which the EC50 stood at 20 nM.

As for `O=c1c(=O)n(C2CCCC2)ccn1Cc1ncc(-c2ccccc2)cn1` [Example 337, 1-cyclopentyl-4-((5-phenylpyrimidin-2-yl)methyl)-1,4-dihydropyrazine-2,3-dione], the EC50 amounted to 15 nM.

On to `N#CC1CCC(n2ccn(Cc3nnc(-c4ccccc4)s3)c(=O)c2=O)C1` (centres unmarked) [Example 338, 3-(2,3-dioxo-4-((5-phenyl-1,3,4-thiadiazol-2-yl)methyl)-3,4-dihydropyrazin-1(2H)-yl)cyclopentane-1-carbonitrile], for which the EC50 was 12 nM.

`CCCOc1ccc(CN2CCN(C3CCCC3)C(=O)C2=O)nn1` [Example 339, 1-cyclopentyl-4-((6-propoxypyridazin-3-yl)methyl)piperazine-2,3-dione]: the EC50 was determined as 42 nM.

As for `CCOc1ccc(CN2CCN(C3CCCC3)C(=O)C2=O)nn1` [Example 340, 1-cyclopentyl-4-((6-ethoxypyridazin-3-yl)methyl)piperazine-2,3-dione], the EC50 stood at 70 nM.

As for `O=C1C(=O)N(C2CCCC2)CCN1Cc1ncc(-c2ccccn2)cn1` [Example 342, 1-cyclopentyl-4-((5-(pyridin-2-yl)pyrimidin-2-yl)methyl)piperazine-2,3-dione], the EC50 was determined as 69 nM.

`O=C1C(=O)N(C2CCCC2)CCN1Cc1ncc(-c2cc(F)ccn2)cn1` [Example 343, 1-cyclopentyl-4-((5-(4-fluoropyridin-2-yl)pyrimidin-2-yl)methyl)piperazine-2,3-dione]: the EC50 was found to be 133 nM.

For the compound `CC(C)(C)N1CCN(Cc2ncc(-c3ccccc3)cn2)C(=O)C1=O` [Example 345, 1-(tert-butyl)-4-((5-phenylpyrimidin-2-yl)methyl)piperazine-2,3-dione], the EC50 was found to be 59 nM.

Consider `O=C1C(=O)N(C2CCCC2)CCN1Cc1nnc(-c2ccccc2)s1` [Example 346, 1-cyclopentyl-4-((5-phenyl-1,3,4-thiadiazol-2-yl)methyl)piperazine-2,3-dione], for which the EC50 was 7 nM.

On to `CC(c1cnn(-c2ccccc2)c1)N1CCN(C2CCCC2)C(=O)C1=O` (centres unmarked) [Example 347, 1-cyclopentyl-4-(1-(1-phenyl-1H-pyrazol-4-yl)ethyl)piperazine-2,3-dione], for which the EC50 came out at 74 nM.

Turning to `C[C@H](c1nnc(-c2ccccc2)s1)N1CCN(C2CCCC2)C(=O)C1=O` [Example 348, (R)-1-cyclopentyl-4-(1-(5-phenyl-1,3,4-thiadiazol-2-yl)ethyl)piperazine-2,3-dione], the EC50 is 18 nM.

As for `C[C@@H](c1nnc(-c2ccccc2)s1)N1CCN(C2CCCC2)C(=O)C1=O` [Example 349, (S)-1-cyclopentyl-4-(1-(5-phenyl-1,3,4-thiadiazol-2-yl)ethyl)piperazine-2,3-dione], the concentration for a half-maximal effect (EC50) worked out at 25 nM.

In the case of `O=C1C(=O)N(C2CCCC2)CCN1CCc1nnc(-c2ccccc2)s1` [Example 350, 1-cyclopentyl-4-(2-(5-phenyl-1,3,4-thiadiazol-2-yl)ethyl)piperazine-2,3-dione], the EC50 is 5 nM.

Take `O=C1C(=O)N(C2CCCC2)CCN1Cc1nnc(-c2ccc(F)cc2)s1` [Example 351, 1-cyclopentyl-4-((5-(4-fluorophenyl)-1,3,4-thiadiazol-2-yl)methyl)piperazine-2,3-dione]: the EC50 came out at 8 nM.

Regarding `CC(Cc1nnc(-c2ccccc2)s1)N1CCN(C2CCCC2)C(=O)C1=O` (centres unmarked) [Example 352, 1-cyclopentyl-4-(1-(5-phenyl-1,3,4-thiadiazol-2-yl)propan-2-yl)piperazine-2,3-dione], the EC50 is 13 nM.

Turning to `CC(CN1CCN(C2CCCC2)C(=O)C1=O)c1nnc(-c2ccccc2)s1` (centres unmarked) [Example 353, 1-cyclopentyl-4-(2-(5-phenyl-1,3,4-thiadiazol-2-yl)propyl)piperazine-2,3-dione], the EC50 was 11 nM.

Turning to `O=C1C(=O)N(C2CCCC2)CCN1Cc1cc2ccccc2[nH]c1=O` [Example 354, 1-cyclopentyl-4-((2-oxo-1,2-dihydroquinolin-3-yl)methyl)piperazine-2,3-dione], the EC50 was found to be 20 nM.

For the compound `C[C@H](c1nnc(-c2ccccc2)s1)N1CCN(C2CCC2)C(=O)C1=O` [Example 355, (R)-1-cyclobutyl-4-(1-(5-phenyl-1,3,4-thiadiazol-2-yl)ethyl)piperazine-2,3-dione], the EC50 was 22 nM.

For the compound `C[C@@H](c1nnc(-c2ccccc2)s1)N1CCN(C2CCC2)C(=O)C1=O` [Example 356, (S)-1-cyclobutyl-4-(1-(5-phenyl-1,3,4-thiadiazol-2-yl)ethyl)piperazine-2,3-dione], the EC50 was 28 nM.

Take `CC1CN(C2CCC2)C(=O)C(=O)N1Cc1nnc(-c2ccccc2)s1` (centres unmarked) [Example 357, 1-cyclobutyl-5-methyl-4-((5-phenyl-1,3,4-thiadiazol-2-yl)methyl)piperazine-2,3-dione]: the EC50 amounted to 32 nM.

With `O=C1C(=O)N(C2CCCC2)CCN1Cc1cc(-c2ccccc2)no1` [Example 358A, 1-cyclopentyl-4-((3-phenylisoxazol-5-yl)methyl)piperazine-2,3-dione], the EC50 came to 2 nM.

With `O=c1c(=O)n(C2CCCC2)ccn1Cc1cc(-c2ccccc2)no1` [Example 358B, 1-cyclopentyl-4-((3-phenylisoxazol-5-yl)methyl)-1,4-dihydropyrazine-2,3-dione], the EC50 came out at 1 nM.

Regarding `O=C1C(=O)N(C23CC(C2)C3)CCN1Cc1ccc(-n2nccn2)cn1` [Example 359, 1-((5-(2H-1,2,3-triazol-2-yl)pyridin-2-yl)methyl)-4-(bicyclo[1.1.1]pentan-1-yl)piperazine-2,3-dione], the EC50 worked out at 22 nM.

Take `O=c1c(=O)n(C23CC(C2)C3)ccn1Cc1ccc(-n2nccn2)cn1` [Example 360, 1-((5-(2H-1,2,3-triazol-2-yl)pyridin-2-yl)methyl)-4-(bicyclo[1.1.1]pentan-1-yl)-1,4-dihydropyrazine-2,3-dione]: the EC50 came to 16 nM.

Consider `O=C1C(=O)N(C2CCCC2)CCN1Cc1ncc(-c2nccs2)cn1` [Example 361, 1-cyclopentyl-4-((5-(thiazol-2-yl)pyrimidin-2-yl)methyl)piperazine-2,3-dione], for which the concentration giving a half-maximal response (EC50) was 96 nM.

`O=C1C(=O)N(C2CCCC2)CCN1Cc1ccc(-c2nccs2)nn1` [Example 362, 1-cyclopentyl-4-((6-(thiazol-2-yl)pyridazin-3-yl)methyl)piperazine-2,3-dione]: the EC50 is 22 nM.

Take `O=C1C(=O)N(C2CCCC2)CCN1Cc1nnc(-c2nccs2)s1` [Example 363, 1-cyclopentyl-4-((5-(thiazol-2-yl)-1,3,4-thiadiazol-2-yl)methyl)piperazine-2,3-dione]: the EC50 came to 25 nM.

For the compound `O=C1C(=O)N(C2CCCC2)CCN1Cc1ccc(-c2nccs2)nc1` [Example 364, 1-cyclopentyl-4-((6-(thiazol-2-yl)pyridin-3-yl)methyl)piperazine-2,3-dione], the EC50 was 17 nM.
